# Test results reported in patent US20110190142A1, “DETERMINATION OF RENIN-PRORENIN RECEPTOR ACTIVITY” (Charite- Universitatsmedizin Berlin, priority 2006, published 2011).
# Columns and labels:
# Type in all cases: cell-based, human
# [1] = system: renin/prorenin receptor (RER); assay: PI3K-p85α promoter luciferase reporter assay under renin stimulation; details: PLZF-overexpressing HEK293 cells
# Description: The indicated cell types were seeded on day 1 in 12-well plates. 100 ng of indicated pGL3-basic constructs (encoding firefly luciferase) and 20 ng of phRL-null plasmid (encoding humanized Renilla luciferase for standardization of promoter activity; Promega) per well were transfected on day 2 at 60-80% confluency using GeneJuice (Merck Biosciences, Bad Soden, Germany) according to the manufacturer's protocol. Cells were harvested 48 hours after transfection using Passive Lysis Buffer (Promega). Reporter activities were measured in a Pharmingen Monolight 3010 luminometer (BD Biosciences, Erembodegem, Belgium) using the Dual-Luciferase Reporter Assay System (Promega). Promoter activity is expressed as relative luciferase activity (RLA) (Funke-Kaiser et al., 2003a). RLA data represent the mean±standard deviation of at least three single, parallel transfection experiments.
# (§1) HEK293 cells were seeded in 24-well plates and transfected with either 100 ng of pCEP4-PLZF-myc expression vector, 50 ng of indicated pGL3-basic construct and 10 ng of phRL-null plasmid (for luciferase assay), or 100 ng of pCEP4-PLZF-myc alone (for PCR experiments) per well as described above. siRNA transfection, renin stimulation and determination of reporter activity were performed as described above, except for an exceeded renin stimulation period of 3 hours.
# [2] = system: renin/prorenin receptor (RER); assay: Renin- and prorenin-mediated RER activation (RER-PLZF pathway) in HEK293 cells with aliskiren or siRNA
# Description: (§2) For all cell culture studies immortalized human epithelial kidney cells (HEK293 cells) were used. […] Additional inhibition with 1 μM aliskiren was performed as indicated. 1 hour after pre-treatment with losartan±aliskiren cells were stimulated with either 5 nM renin, 5 nM prorenin, or the respective vehicle. Cells were harvested for mRNA expression analysis or determination of viable cell number and apoptosis after 3 or 24 hours, respectively. These experimental procedures have been described in detail previously (Schefe et al., 2006). All experiments were performed in independent triplicates.
# [3] = system: RER mRNA; assay: Down-regulation of RER mRNA by siRNA (real-time PCR); details: HEK293 cells
# Description: For PLZF translocation experiments HEK293 cells were seeded on day 1 in 6-well plates. 250 ng of pCEP4-PLZF-myc expression vector per well were transfected on day 2 at 40-60% confluency using GeneJuice (Merck Biosciences, Bad Soden, Germany) according to the manufacturer's protocol. On day 3 the cells were transfected with 50 nM siRNA against the RER [5′-GCUCCGUAAUCGCCUGUUU (sense strand), (SEQ ID No. 38); 5′-AAACAGGCGAUUACGGAGC (antisense strand), (SEQ ID No. 39)] or GFP control siRNA (Eurogentec, Seraing, Belgium) using jetSI-ENDO (Eurogentec) following the standard procedure. On day 5, after 24 hours of starving in serum-free medium, cells were stimulated with 10 nM human recombinant renin (mammalian expression; kind gift from Dominik N. Müller, MDC Berlin) or vehicle (0.1% DMSO in PBS) for 2 hours. Western blot was performed with anti-c-myc antibody (mouse monoclonal, 9B11; 1:2,000; Cell Signalling) and horseradish peroxidase-conjugated anti-mouse antibody (rabbit polyclonal; 1:2,500; DAKO). Chemoluminescence was detected with ECL (Amersham, München, Germany), and subsequent exposition to Hyperfilm (Amersham). […]
# [4] = system: renin/prorenin receptor (RER); assay: PI3K-p85α mRNA by quantitative real-time PCR after renin/prorenin stimulation of HEK293 cells; details: HEK293 cells, regardless of PLZF expression level
# Description: as §1
# RNA isolation and cDNA synthesis were performed as described above. qPCR was performed applying a SYBR Green I reaction mix and run on a Stratagene Mx3000P (Stratagene, La Jolla, Calif., USA) using the following primers: […]
# Data represents the mean expression level±standard deviation (standardized to 18S rRNA expression) calculated according to the ddCT method of at least three independent measurements. Equality of PCR efficiencies has been verified applying the program LinRegPCR (Ramakers et al. 2003) and ANOVA testing.
# as §2
# [5] = system: RER protein; assay: Down-regulation of RER protein by siRNA (Western blot, densitometry); details: Western blot of total cell lysate
# Description: For analysis of subcellular localization of RER, 9 μg (membrane) and 12 μg (cytosolic) protein were loaded per lane, separated in a 10% SDS-PAGE and transferred to a nitrocellulose membrane. Western blot analysis was performed with an antibody against human RER (corresponding ATP6AP2; goat polyclonal, ab5959, Abcam, Cambridge, UK) at a dilution of 0.5 μg/ml. Horseradish peroxidase-conjugated anti-goat antibody (rabbit polyclonal; 1:2,500; DAKO, Hamburg, Germany) was used as secondary antibody.
# For PLZF translocation experiments HEK293 cells were seeded on day 1 in 6-well plates. 250 ng of pCEP4-PLZF-myc expression vector per well were transfected on day 2 at 40-60% confluency using GeneJuice (Merck Biosciences, Bad Soden, Germany) according to the manufacturer's protocol. On day 3 the cells were transfected with 50 nM siRNA against the RER [5′-GCUCCGUAAUCGCCUGUUU (sense strand), (SEQ ID No. 38); 5′-AAACAGGCGAUUACGGAGC (antisense strand), (SEQ ID No. 39)] or GFP control siRNA (Eurogentec, Seraing, Belgium) using jetSI-ENDO (Eurogentec) following the standard procedure. […] Chemoluminescence was detected with ECL (Amersham, München, Germany), and subsequent exposition to Hyperfilm (Amersham).
Compound,influence on renin-induced increase in PI3K-p85α promoter activity [1],influence on transcriptional and cellular effects of prorenin stimulation ([2]; siRNA 24 hours before prorenin),RER mRNA repressed to ([3]; 50 nM siRNA) [%],average reduction of RER mRNA ([3]; siRNA transfected 24 hours before stimulation) [%],influence on renin induction of PI3K-p85α mRNA [4],"RER protein reduced to (densitometric measurement, compared to control) [5]","influence on the effects of renin and prorenin (RER and PI3K-p85α transcription, proliferation, apoptosis) ([2]; pre-treatment with 1 μM aliskiren)"
"siRNA against the RER: siRNA 5′-GCUCCGUAAUCGCCUGUUU (sense), 5′-AAACAGGCGAUUACGGAGC (antisense), SEQ ID No. 38/39 (listed as RNA, chemistry not given here; listed as Homo sapiens)",abolished,completely abolished,29.8±5.2,81.1±4.5,abolished this induction,less than 10%,–
COCCCOc1cc(C[C@@H](C[C@H](N)[C@@H](O)C[C@H](C(=O)NCC(C)(C)C(N)=O)C(C)C)C(C)C)ccc1OC [aliskiren],–,–,–,–,–,–,not affected
